Test results: patent US20240391931A1 (Bristol-Myers Squibb Company, priority 2021, published 2024)

Tests used:
BT474 cells = test: Cellular proliferation in BT474 cells (CellTiter Glo); type: cell-based, human; settings: 120 h, redosed after 72 h
Procedure: (§1) In addition to the engineered cell lines, the following cell lines were used: BT474 (human breast carcinoma), N87 (human gastric carcinoma), NCI-H1781 (human lung adenocarcinoma), and A431 (human epidermoid carcinoma); all cell lines were obtained from the American Type Culture Collection (ATCC, Manassas, VA). NCI-H1781 were grown in complete RPMI 1640 (Life Technologies, Carlsbad, CA) supplemented with 15% fetal bovine serum (FBS, Life Technologies, Carlsbad, CA) and 1% Penicillin-Streptomycin (P/S, Life Technologies, Carlsbad, CA). N87 cells were grown in complete RPMI 1640 supplemented with 10% FBS and 1% P/S. BT474 and A431 cells were grown in DMEM (Life Technologies, Carlsbad, CA) supplemented with 10% FBS and 1% P/S. All cells were maintained and propagated in a humidified 5% CO2 incubator at 37° C.
(§2) Cell proliferation in adherent cells was investigated in two HER2 amplified cell lines (BT474, N87), and a HER2VC expressing cell line (NCI-H1781). BT474, NCI-H1781, and N87 were plated in their appropriate growth media supplemented with either 10% FBS (BT474, N87) or 15% FBS (NCI-H1781) and 1% P/S in 96-well white clear-bottom tissue culture plates (Costar, Sigma-Aldrich). The starting cell densities were 3500, 5500, and 5000 cells for BT474, NCI-H1781, and N87 cells, respectively. An 8-point standard curve with varying cell densities (starting at 50000 cells and serially diluting down 2-fold) was prepared for each cell line and read 6 h after plating. Cells were allowed to attach overnight prior to compound treatment. Compound solutions were prepared by serially diluting test compounds in DMSO (Sigma-Aldrich), then diluting 500× in their corresponding serum free media. Cells were treated by adding a 1:1 volume of test compound to a final concentration of […], 0.004, 0.0014, or 0.0005 μM, in 0.1% DMSO and 5% FBS (for BT474 and N87) or 7.5% FBS (NCI-H1781). In BT474 and NCI-H1781, cell media was replaced and cells were redosed with fresh test compound solutions after 72 h. Viability was determined by CellTiter Glo (Promega, Madison, WI) after 72 h for N87 cells, and after 120 h for BT474 and […] cells. The results were converted to cell numbers using a standard curve; growth inhibition (GI50 values) were determined by Graph Pad Prism. […] The results are provided in Table 4, under columns titled “BT474-GI50”, “N87-GI50”, and “NCI-H1781-GI50”.

HER2VC (G776delinsVC) = molecular target: T1, HER2VC (G776delinsVC) (Homo sapiens, UniProt P04626, G776C/INS775V); test: HER2 signaling (pHER2) in NCI-H1781 cells; type: cell-based; settings: 1.5 hr compound, 1% FBS
T1 construct: NCI-H1781 cells which endogenously expresses a HER2 mutant protein; endogenous in cells; host or cells: NCI-H1781
T1 sequence (P04626 with tags, fused parts or gaps INS775V/G776C): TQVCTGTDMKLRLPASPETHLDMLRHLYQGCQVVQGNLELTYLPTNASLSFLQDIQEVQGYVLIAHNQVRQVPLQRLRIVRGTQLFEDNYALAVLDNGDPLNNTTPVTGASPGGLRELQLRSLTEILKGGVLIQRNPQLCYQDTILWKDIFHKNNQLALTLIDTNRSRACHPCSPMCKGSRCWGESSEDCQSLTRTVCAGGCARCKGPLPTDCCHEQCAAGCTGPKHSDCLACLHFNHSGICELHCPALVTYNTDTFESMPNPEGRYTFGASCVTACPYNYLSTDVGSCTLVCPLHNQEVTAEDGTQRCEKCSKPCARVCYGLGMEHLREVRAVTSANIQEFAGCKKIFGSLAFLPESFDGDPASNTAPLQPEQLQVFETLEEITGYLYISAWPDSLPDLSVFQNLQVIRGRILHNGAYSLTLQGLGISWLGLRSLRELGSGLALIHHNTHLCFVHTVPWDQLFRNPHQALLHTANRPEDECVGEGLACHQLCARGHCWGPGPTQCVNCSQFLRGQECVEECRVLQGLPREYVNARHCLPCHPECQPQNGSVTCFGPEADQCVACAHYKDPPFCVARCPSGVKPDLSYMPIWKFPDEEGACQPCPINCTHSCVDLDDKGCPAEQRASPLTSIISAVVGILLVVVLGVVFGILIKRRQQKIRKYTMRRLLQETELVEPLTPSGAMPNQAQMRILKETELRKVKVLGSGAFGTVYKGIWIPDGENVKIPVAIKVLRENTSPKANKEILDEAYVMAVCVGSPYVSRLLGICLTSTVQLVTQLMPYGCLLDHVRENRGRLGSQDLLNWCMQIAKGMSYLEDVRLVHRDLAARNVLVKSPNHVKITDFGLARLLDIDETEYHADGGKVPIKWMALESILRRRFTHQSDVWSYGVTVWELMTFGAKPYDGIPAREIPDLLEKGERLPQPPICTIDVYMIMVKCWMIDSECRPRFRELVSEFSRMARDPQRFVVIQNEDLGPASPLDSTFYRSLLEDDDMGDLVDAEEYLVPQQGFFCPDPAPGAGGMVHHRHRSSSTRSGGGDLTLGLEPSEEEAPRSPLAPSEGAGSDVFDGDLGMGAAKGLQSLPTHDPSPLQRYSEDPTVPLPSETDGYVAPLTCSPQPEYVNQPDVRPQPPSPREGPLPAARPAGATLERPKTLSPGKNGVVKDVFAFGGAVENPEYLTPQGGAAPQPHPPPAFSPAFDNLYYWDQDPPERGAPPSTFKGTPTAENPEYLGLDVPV
Procedure: as §1
HER2 signaling was assessed in BT474 and N87 cell lines which endogenously overexpress the HER2 wildtype (WT) protein, in NCI-H1781 cells which endogenously expresses a HER2 mutant protein containing a VC insertion in the kinase domain (HER2VC or G776delinsVC), and in engineered cell lines transduced to express the Her2 mutant protein containing the YVMA insertion (Hek293-HER2YVMA and BEAS2B-HER2YVMA).
BT474, N87, and NCI-H1781 were plated in 96-well tissue-culture treated plates (Corning Costar, Sigma-Aldrich) in full media and incubated overnight. Hek293-HER2YVMA and BEAS2B-HER2YVMA cells were plated in 96-well poly-D-lysine treated plates (BD Bioscience, San Jose, CA). For treatment with test compounds, the media was replaced with corresponding low serum media (1% FBS) containing test compound at 1.1, 0.37, 0.12, 0.041, 0.014, 0.005, 0.0014, 0.0005 μM or DMSO control (0.1%). Cells were incubated with compound for 1.5 hr at 37° C. After compound treatment, the media was removed and cells were lysed for 30 min on ice in complete MSD lysis buffer (prepared using MSD base lysis buffer (Meso-Scale Discovery) supplemented with cOmplete, EDTA-free Protease inhibitor cocktail (Roche), Phosphatase Inhibitor Cocktails 2 and 3 (Sigma-Aldrich), and 1 mM PMSF (Sigma-Aldrich)). Lysates were stored at −70° C. until further analysis.
HER2 signaling was evaluated using phospho (Tyr1248)/total ErbB2 whole cell lysate MSD plates (Meso-Scale Discovery, Gaithersburg, MD). The phospho HER2 signal was normalized to total HER2 for each sample; results are reported as % DMSO control. The normalized data was fitted using a sigmoidal curve analysis program (Graph Pad Prism version 6) with variable Hill slope to determine EC50 values.
The HER2 signaling results are provided in Table 4, under columns titled “BT474-pHER2 EC50”, “N87-pHER2 EC50”, and “NCI-H1781-pHER2 EC50”. Hek293-HER2YVMA ins fall under the heading “HEKYVMA-pHER2 EC50”, Ba/F3 HER2YVMA fall under the heading “Ba/F3 YVMA-pHER2 EC50” and BEAS2B-HER2YVMA fall under the heading “BEAS2B YVMA-pHER2 EC50”.

N87 cells = test: Cellular proliferation in N87 cells (CellTiter Glo); type: cell-based, human; settings: 72 h
Procedure: as §1, §2

EGFR = EGFR (Homo sapiens, UniProt P00533); test: EGFR signaling (pEGFR Tyr1068/total EGFR MSD) in A431 cells; type: cell-based; design: endogenous in cells; host or cells: A431, N87; settings: for EC50: A431 cells, read-out: A431 pEGFR EC50; for Selectivity A431 EC50/BT474 EC50: ratio A431 pEGFR EC50 to BT474 pHER2 EC50; for Selectivity A431 EC50/HEKYVMA EC50: ratio A431 pEGFR EC50 to HEK YVMA pHER2 EC50
Sequence of EGFR (P00533 25-1210): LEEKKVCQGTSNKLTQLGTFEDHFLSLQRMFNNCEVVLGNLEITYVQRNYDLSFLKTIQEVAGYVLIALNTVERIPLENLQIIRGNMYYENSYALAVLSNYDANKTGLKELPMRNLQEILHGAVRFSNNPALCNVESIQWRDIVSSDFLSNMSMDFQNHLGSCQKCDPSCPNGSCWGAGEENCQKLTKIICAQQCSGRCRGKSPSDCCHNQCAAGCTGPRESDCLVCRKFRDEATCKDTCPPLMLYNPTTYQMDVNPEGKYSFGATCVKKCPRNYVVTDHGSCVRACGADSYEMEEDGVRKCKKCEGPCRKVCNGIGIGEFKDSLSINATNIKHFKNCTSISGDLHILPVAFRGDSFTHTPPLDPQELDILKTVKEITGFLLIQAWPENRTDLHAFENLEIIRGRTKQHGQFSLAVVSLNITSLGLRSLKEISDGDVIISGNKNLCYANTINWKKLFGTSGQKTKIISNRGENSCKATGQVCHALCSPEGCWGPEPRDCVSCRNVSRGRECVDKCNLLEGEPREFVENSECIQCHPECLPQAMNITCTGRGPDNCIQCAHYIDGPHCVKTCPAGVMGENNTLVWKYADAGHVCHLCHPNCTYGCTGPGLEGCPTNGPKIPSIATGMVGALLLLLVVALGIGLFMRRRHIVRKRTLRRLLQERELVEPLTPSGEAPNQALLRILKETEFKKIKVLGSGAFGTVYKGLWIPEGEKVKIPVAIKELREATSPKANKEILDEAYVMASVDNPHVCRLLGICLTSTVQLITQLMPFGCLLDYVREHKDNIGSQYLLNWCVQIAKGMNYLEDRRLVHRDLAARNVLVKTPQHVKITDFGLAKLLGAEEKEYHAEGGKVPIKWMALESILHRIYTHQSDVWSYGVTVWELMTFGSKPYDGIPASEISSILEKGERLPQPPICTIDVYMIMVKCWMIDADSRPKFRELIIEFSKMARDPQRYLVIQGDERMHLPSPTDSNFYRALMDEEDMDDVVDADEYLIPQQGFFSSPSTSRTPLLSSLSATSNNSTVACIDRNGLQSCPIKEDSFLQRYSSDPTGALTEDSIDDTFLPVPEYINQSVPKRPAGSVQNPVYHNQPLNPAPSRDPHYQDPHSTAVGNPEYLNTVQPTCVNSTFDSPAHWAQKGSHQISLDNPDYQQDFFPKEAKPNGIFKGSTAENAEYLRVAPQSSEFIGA
How it was run: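 Serum-starved A431 cells were pretreated 1.5 h in 1% FBS with compound (0.005–10 μM, 0.1% DMSO), then stimulated with 100 ng/mL human EGF for 10 min. Lysate pEGFR Tyr1068 was measured by MSD and normalized to total EGFR as % DMSO control; EC50 from variable-slope sigmoidal fit.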

[1] = Homo sapiens, BT-474, BT474 cells

| Compound | GI50 (BT474 cells; [1]) | EC50 (HER2VC (G776delinsVC)) | GI50 (N87 cells; Homo sapiens) | EC50 (EGFR) | Selectivity A431 EC50/BT474 EC50 (EGFR) | Selectivity A431 EC50/HEKYVMA EC50 (EGFR) | GI50 (BT474 cells; BT474 cells) | GI50 (N87 cells) |
| --- | --- | --- | --- | --- | --- | --- | --- | --- |
| Cc1ccc(Oc2ccc(Nc3ncnc4sc5c(c34)C(C)N(C(=O)C=CCN(C)C)C5)cc2C)cn1 (single isomer, unassigned) [Compound 147] | < 100 nM | < 100 nM | < 100 nM | < 100 nM | B (B: ≥ 20 and < 100) | D (D: ≥ 5 and < 10) | – | – |
| COc1ccc(Oc2ccc(Nc3ncnc4sc5c(c34)C(C)CN(C(=O)C=CCN(C)C)C5)cc2C)cn1 (single isomer, unassigned) [Compound 159] | < 100 nM | 100 to 350 nM | < 100 nM | 100 to 1000 nM | C (C: ≥ 10 and < 20) | E (E: >1 and < 5) | – | – |
| COc1ccc(Oc2ccc(Nc3ncnc4sc5c(c34)C(C)CN(C(=O)C=CCN(C)C)C5)cc2C)cn1 (single isomer, unassigned) [Compound 160] | – | < 100 nM | – | 100 to 1000 nM | D (D: ≥ 5 and < 10) | D (D: ≥ 5 and < 10) | < 100 nM | < 100 nM |
| Cc1ccc(Oc2ccc(Nc3ncnc4sc5c(c34)CN(C(=O)C=CCN(C)C)C5C)cc2C)cn1 (single isomer, unassigned) [Compound 169] | < 100 nM | < 100 nM | < 100 nM | 100 to 1000 nM | C (C: ≥ 10 and < 20) | D (D: ≥ 5 and < 10) | – | – |
| Cc1ccc(Oc2ccc(Nc3ncnc4sc5c(c34)CN(C(=O)C=CCN(C)C)C5C)cc2C)cn1 (single isomer, unassigned) [Compound 170] | – | 100 to 350 nM | – | < 100 nM | B (B: ≥ 20 and < 100) | B (B: ≥ 20 and < 100) | 100 to 350 nM | 100 to 350 nM |
| COc1cc(Nc2ncnc3sc4c(c23)CCN(C(=O)/C=C/CN(C)C)C4)ccc1Oc1ccccc1 [Compound 7, (E)-4-(dimethylamino)-1-(4-((3-methoxy-4-phenoxyphenyl)amino)-5,8-dihydropyrido[4′,3′:4,5]thieno[2,3-d]pyrimidin-7(6H)-yl)but-2-en-1-one] | – | < 100 nM | – | < 100 nM | D (D: ≥ 5 and < 10) | F (F: < 1) | – | – |
| Cc1ccc(Oc2ccc(Nc3ncnc4sc5c(c34)CCN(C(=O)/C=C/CN(C)C)C5)cc2C)cn1 [Compound 8, (E)-4-(Dimethylamino)-1-(4-((3-methyl-4-((6-methylpyridin-3-yl)oxy)phenyl)amino)-5,6-dihydropyrido[4′,3′:4,5]thieno[2,3-d]pyrimidin-7(8H)-yl)but-2-en-1-one] | < 100 nM | < 100 nM | < 100 nM | < 100 nM | C (C: ≥ 10 and < 20) | C (C: ≥ 10 and < 20) | – | – |
| Cc1ccc(Oc2ccc(Nc3ncnc4sc5c(c34)CCN(C(=O)/C=C/CN3CCOCC3)C5)cc2C)cn1 [Compound 17, (E)-1-(4-((3-Methyl-4-((6-methylpyridin-3-yl)oxy)phenyl)amino)-5,6-dihydropyrido[4′,3′:4,5]thieno[2,3-d]pyrimidin-7(8H)-yl)-4-morpholinobut-2-en-1-one] | < 100 nM | < 100 nM | < 100 nM | 100 to 1000 nM | C (C: ≥ 10 and < 20) | A (A: ≥100) | – | – |
| COc1ccc(Oc2ccc(Nc3ncnc4sc5c(c34)CN(C(=O)/C=C/CN(C)C)C5)cc2C)cn1 [Compound 128, (E)-4-(dimethylamino)-1-(4-((4-((6-methoxypyridin-3-yl)oxy)-3-methylphenyl)amino)-5,7-dihydro-6H-pyrrolo[3′,4′:4,5]thieno[2,3-d]pyrimidin-6-yl)but-2-en-1-one] | < 100 nM | 100 to 350 nM | < 100 nM | 1000 to 10000 nM | B (B: ≥ 20 and < 100) | B (B: ≥ 20 and < 100) | – | – |
| Cc1ccc(Oc2ccc(Nc3ncnc4sc5c(c34)CN(C(=O)/C=C/CN(C)C)C5)cc2Cl)cn1 [Compound 129, (E)-1-(4-((3-Chloro-4-((6-methylpyridin-3-yl)oxy)phenyl)amino)-5H-pyrrolo[3′,4′:4,5]thieno[2,3-d]pyrimidin-6(7H)-yl)-4-(dimethylamino)but-2-en-1-one] | < 100 nM | < 100 nM | < 100 nM | 100 to 1000 nM | B (B: ≥ 20 and < 100) | B (B: ≥ 20 and < 100) | – | – |
| COc1ccc(Oc2ccc(Nc3ncnc4sc5c(c34)C(C)CN(C(=O)/C=C/CN(C)C)C5)cc2C)cn1 (stereo not drawn) [Compound 152, (E)-4-(dimethylamino)-1-(4-((4-((6-methoxypyridin-3-yl)oxy)-3-methylphenyl)amino)-5-methyl-5,8-dihydropyrido[4′,3′:4,5]thieno[2,3-d]pyrimidin-7(6H)-yl)but-2-en-1-one] | < 100 nM | < 100 nM | < 100 nM | 100 to 1000 nM | C (C: ≥ 10 and < 20) | C (C: ≥ 10 and < 20) | – | – |
| Cc1ccc(Oc2ccc(Nc3ncnc4sc5c(c34)C(C)CN(C(=O)/C=C/CN3CCOCC3)C5)cc2C)cn1 (stereo not drawn) [Compound 174, (E)-1-(5-Methyl-4-((3-methyl-4-((6-methylpyridin-3-yl)oxy)phenyl)amino)-5,6-dihydropyrido[4′,3′:4,5]thieno[2,3-d]pyrimidin-7(8H)-yl)-4-morpholinobut-2-en-1-one] | – | < 100 nM | < 100 nM | 100 to 1000 nM | B (B: ≥ 20 and < 100) | C (C: ≥ 10 and < 20) | – | – |
